From ChEMBL document CHEMBL3588841, “Synthesis and cancer cell growth inhibitory activity of icaritin derivatives” (Eur J Med Chem, 2015)

Legend:
[1] = Cytotoxicity against human MDA-MB-435S cells assessed as cell viability by MTT assay; format: functional, cell-based
A549 [2] = assay: Cytotoxicity against human A549 cells assessed as cell viability by MTT assay; format: functional, cell-based
MCF7 [3] = assay: Cytotoxicity against human MCF7 cells assessed as cell viability by MTT assay; format: functional, cell-based
Vero = assay: Cytotoxicity against African green monkey Vero cells assessed as cell viability by MTT assay; format: cell-based; conditions: Chlorocebus sabaeus
[4] = Chemical stability of the compound in phosphate buffered saline assessed as decomposition at pH 7; format: physicochemical; conditions: read-out: Drug degradation
A549 [5] = assay: Ratio of icaritin to compound for human A549 cells assessed as cell viability by MTT assay; format: functional
A549 [6] = assay: Ratio of tamoxifen to compound for human A549 cells assessed as cell viability by MTT assay; format: functional
[7] = Ratio of icaritin to compound for human MDA-MB-435S cells assessed as cell viability by MTT assay; format: functional
MCF7 [8] = assay: Ratio of icaritin to compound for human MCF7 cells assessed as cell viability by MTT assay; format: functional
MCF7 [9] = assay: Ratio of tamoxifen to compound for human MCF7 cells assessed as cell viability by MTT assay; format: functional
[10] = Ratio of tamoxifen to compound for human MDA-MB-435S cells assessed as cell viability by MTT assay; format: functional

| SMILES | IC50 ([1]; Homo sapiens, MDA-MB-435S) | IC50 (A549 [2]) | IC50 (MCF7 [3]) | IC50 (Vero) | also measured |
| --- | --- | --- | --- | --- | --- |
| COc1ccc(-c2oc3c(CC=C(C)C)c(OC(C(=O)O)C(=O)O)cc(O)c3c(=O)c2OC(C(=O)O)C(=O)O)cc1 | 78.9 µM | > 100 µM | > 100 µM |  |  |
| COc1ccc(-c2oc3c(CC=C(C)C)c(OCCCOC(=O)CCCC(=O)O)cc(O)c3c(=O)c2OCCCOC(=O)CCCC(=O)O)cc1 | 8.1 µM | 14.3 µM | 2.2 µM | 6.3 µM | degraded [4]: 7% |
| COc1ccc(-c2oc3c(CC=C(C)C)c(O)cc(O)c3c(=O)c2O)cc1 [ICARITIN] | 24.9 µM | > 100 µM | 7 µM | 21.6 µM |  |
| COc1ccc(-c2oc3c(CC=C(C)C)c(OCCCOC(=O)CCC(=O)O)cc(O)c3c(=O)c2OCCCOC(=O)CCC(=O)O)cc1 | 6.4 µM | 18.4 µM | > 100 µM | 14.5 µM |  |
| CCOC(=O)COc1c(-c2ccc(OC)cc2)oc2c(CC=C(C)C)c(O)cc(O)c2c1=O | 30 µM | 65.2 µM | > 100 µM |  |  |
| CCOC(=O)CCCOc1cc(O)c2c(=O)c(O)c(-c3ccc(OC)cc3)oc2c1CC=C(C)C | > 100 µM | > 100 µM | > 100 µM |  |  |
| COc1ccc(-c2oc3c(CC=C(C)C)c(OCC(=O)O)cc(O)c3c(=O)c2O)cc1 | 13.5 µM | 16.7 µM | > 100 µM |  |  |
| COc1ccc(-c2oc3c(CC=C(C)C)c(O)cc(O)c3c(=O)c2OC(C(=O)O)C(=O)O)cc1 | > 100 µM | > 100 µM | > 100 µM |  |  |
| CCOC(=O)CCCOc1cc(O)c2c(=O)c(OCCCC(=O)OCC)c(-c3ccc(OC)cc3)oc2c1CC=C(C)C | > 100 µM | > 100 µM | > 100 µM |  |  |
| COc1ccc(-c2oc3c(CC=C(C)C)c(OCCOC(=O)CCC(=O)O)cc(O)c3c(=O)c2OCCOC(=O)CCC(=O)O)cc1 | 60.5 µM | > 100 µM | > 100 µM |  |  |
| COc1ccc(-c2oc3c(CC=C(C)C)c(O)cc(O)c3c(=O)c2OC(C)C(=O)O)cc1 (racemic) | 7.5 µM | 40.7 µM | > 100 µM | 36.6 µM |  |
| COc1ccc(-c2oc3c(CC=C(C)C)c(OCCO)cc(O)c3c(=O)c2OCCO)cc1 | > 100 µM | > 100 µM | > 100 µM |  |  |
| COc1ccc(-c2oc3c(CC=C(C)C)c(OCCOC(=O)CCCC(=O)O)cc(O)c3c(=O)c2OCCOC(=O)CCCC(=O)O)cc1 | 6.3 µM | 6.1 µM | 3 µM | > 100 µM | degraded [4]: 7% |
| COc1ccc(-c2oc3c(CC=C(C)C)c(OC/C=C/C(=O)O)cc(O)c3c(=O)c2O)cc1 | 11.3 µM | 22.9 µM | > 100 µM |  |  |
| COc1ccc(-c2oc3c(CC=C(C)C)c(O)cc(O)c3c(=O)c2OCCCC(=O)O)cc1 | 10 µM | 23.9 µM | > 100 µM | 55.9 µM |  |
| COc1ccc(-c2oc3c(CC=C(C)C)c(OCC(=O)O)cc(O)c3c(=O)c2OCC(=O)O)cc1 | > 100 µM | > 100 µM | > 100 µM |  |  |
| CCOC(=O)C(Oc1cc(O)c2c(=O)c(OC(C(=O)OCC)C(=O)OCC)c(-c3ccc(OC)cc3)oc2c1CC=C(C)C)C(=O)OCC | 85 µM | > 100 µM | > 100 µM |  |  |
| CCOC(=O)COc1cc(O)c2c(=O)c(OCC(=O)OCC)c(-c3ccc(OC)cc3)oc2c1CC=C(C)C | > 100 µM | > 100 µM | > 100 µM |  |  |
| COc1ccc(-c2oc3c(CC=C(C)C)c(OCCCO)cc(O)c3c(=O)c2OCCCO)cc1 | 21.8 µM | > 100 µM | > 100 µM |  |  |

| SMILES | IC50 ([1]; Homo sapiens, MDA-MB-435S) | IC50 (A549 [2]) | IC50 (MCF7 [3]) | IC50 (Vero) | also measured |
| --- | --- | --- | --- | --- | --- |
| CCOC(=O)C(C)Oc1cc(O)c2c(=O)c(OC(C)C(=O)OCC)c(-c3ccc(OC)cc3)oc2c1CC=C(C)C (single isomer, unassigned; diastereomer 2) | > 100 µM | > 100 µM | > 100 µM |  |  |
| COc1ccc(-c2oc3c(CC=C(C)C)c(OC/C=C/C(=O)O)cc(O)c3c(=O)c2OC/C=C/C(=O)O)cc1 | 57.5 µM | > 100 µM | > 100 µM |  |  |
| COc1ccc(-c2oc3c(CC=C(C)C)c(OCCCC(=O)O)cc(O)c3c(=O)c2OCCCC(=O)O)cc1 | 31.1 µM | 26 µM | > 100 µM |  |  |
| CCOC(=O)/C=C/COc1c(-c2ccc(OC)cc2)oc2c(CC=C(C)C)c(O)cc(O)c2c1=O | 2.2 µM | 4.7 µM | 10.3 µM | 3.1 µM | Ratio (A549 [5]): 2.5; Ratio (A549 [6]): 2.5; Ratio [7]: 2.5; Ratio (MCF7 [8]): 2.5; Ratio (MCF7 [9]): 2.5; Ratio [10]: 2.5 |
| COc1ccc(-c2oc3c(CC=C(C)C)c(OC(C)C(=O)O)cc(O)c3c(=O)c2O)cc1 (racemic) | 5.7 µM | 15.3 µM | > 100 µM | 19.3 µM |  |
| COc1ccc(-c2oc3c(CC=C(C)C)c(OC(C)C(=O)O)cc(O)c3c(=O)c2OC(C)C(=O)O)cc1 (stereo in doubt; 3b) |  |  |  |  | IC50 ([1]; mda-mb-435s): 26.7 µM |
| CCOC(=O)CCCOc1c(-c2ccc(OC)cc2)oc2c(CC=C(C)C)c(O)cc(O)c2c1=O | 8.8 µM | 11 µM | 3 µM | 5.8 µM |  |
| CCOC(=O)C(C)Oc1cc(O)c2c(=O)c(O)c(-c3ccc(OC)cc3)oc2c1CC=C(C)C (racemic) | 2.5 µM | 26.5 µM | > 100 µM | 1.4 µM | degraded [4]: 25% |
| CCOC(=O)/C=C/COc1cc(O)c2c(=O)c(OC/C=C/C(=O)OCC)c(-c3ccc(OC)cc3)oc2c1CC=C(C)C | > 100 µM | > 100 µM | > 100 µM |  |  |
| CCOC(=O)COc1cc(O)c2c(=O)c(O)c(-c3ccc(OC)cc3)oc2c1CC=C(C)C | 5.3 µM | 41.6 µM | 27.9 µM | 1.4 µM |  |
| COc1ccc(-c2oc3c(CC=C(C)C)c(OCCCC(=O)O)cc(O)c3c(=O)c2O)cc1 | 12.7 µM | 19.1 µM | > 100 µM |  |  |
| CC/C(=C(\c1ccccc1)c1ccc(OCCN(C)C)cc1)c1ccccc1 [TAMOXIFEN] | 5.5 µM | 8.4 µM | 3.8 µM | 5.7 µM |  |
| COc1ccc(-c2oc3c(CC=C(C)C)c(O)cc(O)c3c(=O)c2OCC(=O)O)cc1 | 17.8 µM | 43.4 µM | 82.5 µM |  |  |
| CCOC(=O)C(C)Oc1c(-c2ccc(OC)cc2)oc2c(CC=C(C)C)c(O)cc(O)c2c1=O (racemic) | 4.1 µM | 4.6 µM | 4.7 µM | 6.5 µM | degraded [4]: 7% |
| COc1ccc(-c2oc3c(CC=C(C)C)c(O)cc(O)c3c(=O)c2OC/C=C/C(=O)O)cc1 | 8.3 µM | 10.7 µM | 48.9 µM | 7.1 µM |  |
| CCOC(=O)C(Oc1c(-c2ccc(OC)cc2)oc2c(CC=C(C)C)c(O)cc(O)c2c1=O)C(=O)OCC | 4.4 µM | 19.3 µM | 17.2 µM | 4.4 µM |  |
| CCOC(=O)/C=C/COc1cc(O)c2c(=O)c(O)c(-c3ccc(OC)cc3)oc2c1CC=C(C)C | > 100 µM | > 100 µM | > 100 µM |  |  |
| COc1ccc(-c2oc3c(CC=C(C)C)c(OC(C)C(=O)O)cc(O)c3c(=O)c2OC(C)C(=O)O)cc1 (stereo in doubt; 3c) |  | > 100 µM | > 100 µM |  | IC50 ([1]; mda-mb-435s): > 100 µM |
